22 molecules from patent US11414424B2, “Cardiac sarcomere inhibitors” (Cytokinetics, Inc., priority 2018, dated 2022) can be followed below.

The test relates to bovine cardiac myofibrils. In words: Myofibril assay: PK/LDH-coupled steady-state ATPase activity of skinned bovine cardiac myofibrils. Particulars: Ca2+ activating to 75% of maximal rate. In kind it is biochemical. A digest of the protocol:
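Steady-state ATPase of detergent-skinned bovine left-ventricular myofibrils (1 mg/mL), PK/LDH-coupled NADH read at 340 nm, in PIPES/MgCl2 buffer pH 6.8 with 50 μM ATP, 0.6 mM EGTA and CaCl2 set for 50% or 75% activation. Inhibition of activity measured.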
As for `CNC(=O)N1CCC2(C1)C(=O)N(c1ccc(C#N)nc1)CC(=O)N2Cc1ccc(C(F)(F)F)cc1` (stereo not shown) [Compound 184, 9-(6-cyanopyridin-3-yl)-N-methyl-7,10-dioxo-6-(4-(trifluoromethyl)benzyl)-2,6,9-triazaspiro[4.5]-decane-2-carboxamide], the “CDMF75 IC15” value is 25.5 µM. As for `CNC(=O)N1CCC2(C1)C(=O)N(c1ccc(C#N)cc1)CC(=O)N2Cc1ccc(Cl)cc1` (stereo not shown) [Compound 185, 6-(4-chlorobenzyl)-9-(4-cyanophenyl)-N-methyl-7,10-dioxo-2,6,9-triazaspiro[4.5]decane-2-carboxamide], the “CDMF75 IC15” value stood at 3.2 µM. Take `CC(=O)N1CC2(C1)C(=O)N(c1ccc(C#N)cc1)CC(=O)N2Cc1ccc(C(F)(F)F)cc1` [Compound 186, 4-(2-acetyl-6,9-dioxo-5-(4-(trifluoromethyl)benzyl)-2,5,8-triazaspiro[3.5]nonan-8-yl)benzonitrile]: the “CDMF75 IC15” value was found to be 15.8 µM. As for `CCC(=O)N1CC2(C1)C(=O)N(c1ccc(C#N)cc1)CC(=O)N2Cc1ccc(C(F)(F)F)cc1` [Compound 187, 4-(6,9-dioxo-2-propionyl-5-(4-(trifluoromethyl)benzyl)-2,5,8-triazaspiro[3.5]nonan-8-yl)benzonitrile], the “CDMF75 IC15” value was determined as 15.9 µM. For the molecule `COC(=O)N1CC2(C1)C(=O)N(c1ccc(C#N)cc1)CC(=O)N2Cc1ccc(C(F)(F)F)cc1` [Compound 188, methyl 8-(4-cyanophenyl)-6,9-dioxo-5-(4-(trifluoromethyl)benzyl)-2,5,8-triazaspiro[3.5]-nonane-2-carboxylate], the “CDMF75 IC15” value worked out at 2.6 µM. With `CNC(=S)N1CC2(C1)C(=O)N(c1ccc(C#N)cc1)CC(=O)N2Cc1ccc(C(F)(F)F)cc1` [Compound 189, 8-(4-cyanophenyl)-N-methyl-6,9-dioxo-5-(4-(trifluoromethyl)benzyl)-2,5,8-triazaspiro[3.5]-nonane-2-carbothioamide], the “CDMF75 IC15” value came to 1.4 µM.

For the molecule `N#Cc1ccc(N2CC(=O)N(Cc3ccc(C(F)(F)F)cc3)C3(CN(C=O)C3)C2=O)cc1` [Compound 190, 4-(2-formyl-6,9-dioxo-5-(4-(trifluoromethyl)benzyl)-2,5,8-triazaspiro[3.5]nonan-8-yl)benzonitrile], the “CDMF75 IC15” value worked out at 4.0 µM. For `N#Cc1ccc(N2CC(=O)N(Cc3ccc(C(F)(F)F)cc3)C3(CN(CC(F)F)C3)C2=O)cc1` [Compound 191, 4-(2-(2,2-difluoroethyl)-6,9-dioxo-5-(4-(trifluoromethyl)benzyl)-2,5,8-triazaspiro[3.5]nonan-8-yl)benzonitrile] the value was 14.3 µM. Turning to `N#Cc1ccc(N2CC(=O)N(Cc3ccc(C(F)(F)F)cc3)C3(CN(c4ccc(C#N)cn4)C3)C2=O)cc1` [Compound 192, 6-(8-(4-cyanophenyl)-6,9-dioxo-5-(4-(trifluoromethyl)benzyl)-2,5,8-triazaspiro[3.5]nonan-2-yl)nicotinonitrile], the “CDMF75 IC15” value was 0.6 µM.

With `N#Cc1ccc(N2CC(=O)N(Cc3ccc(C(F)(F)F)cc3)C3(CN(CC(F)F)C3)C2=O)cc1F` [Compound 193, 4-(2-(2,2-difluoroethyl)-6,9-dioxo-5-(4-(trifluoromethyl)benzyl)-2,5,8-triazaspiro[3.5]nonan-8-yl)-2-fluorobenzonitrile], the “CDMF75 IC15” value worked out at 1.7 µM.

Consider `N#Cc1ccc(N2CC(=O)N(Cc3ccc(C(F)(F)F)cc3)C3(CN(C=O)C3)C2=O)cc1F` [Compound 194, 2-fluoro-4-(2-formyl-6,9-dioxo-5-(4-(trifluoromethyl)benzyl)-2,5,8-triazaspiro[3.5]nonan-8-yl)benzonitrile], for which the “CDMF75 IC15” value was 0.4 µM. Take `CNC(=S)N1CC2(C1)C(=O)N(c1ccc(C#N)c(F)c1)CC(=O)N2Cc1ccc(C(F)(F)F)cc1` [Compound 195, 8-(4-cyano-3-fluorophenyl)-N-methyl-6,9-dioxo-5-(4-(trifluoromethyl)benzyl)-2,5,8-triazaspiro[3.5]nonane-2-carbothioamide]: the “CDMF75 IC15” value worked out at 0.4 µM. Regarding `COC(=O)N1CC2(C1)C(=O)N(c1ccc(C#N)c(F)c1)CC(=O)N2Cc1ccc(C(F)(F)F)cc1` [Compound 196, methyl 8-(4-cyano-3-fluorophenyl)-6,9-dioxo-5-(4-(trifluoromethyl)benzyl)-2,5,8-triazaspiro[3.5]nonane-2-carboxylate], the “CDMF75 IC15” value was determined as 0.4 µM. For `CC(=O)N1CC2(C1)C(=O)N(c1ccc(C#N)c(F)c1)CC(=O)N2Cc1ccc(C(F)(F)F)cc1` [Compound 197, 4-(2-acetyl-6,9-dioxo-5-(4-(trifluoromethyl)benzyl)-2,5,8-triazaspiro[3.5]nonan-8-yl)-2-fluorobenzonitrile] the value was 2.7 µM; for `N#Cc1ccc(N2CC(=O)N(Cc3ccc(C(F)(F)F)cc3)C3(CN(C(N)=O)C3)C2=O)cc1F` [Compound 198, 8-(4-cyano-3-fluorophenyl)-6,9-dioxo-5-(4-(trifluoromethyl)benzyl)-2,5,8-triazaspiro[3.5]nonane-2-carboxamide], 0.5 µM; for `N#Cc1ccc(N2CC(=O)N(Cc3ccc(C(F)(F)F)cc3)C3(CN(C(=O)NC4CC4)C3)C2=O)cc1F` [Compound 199, 8-(4-cyano-3-fluorophenyl)-N-cyclopropyl-6,9-dioxo-5-(4-(trifluoromethyl)benzyl)-2,5,8-triazaspiro[3.5]nonane-2-carboxamide], 2.3 µM.

For the molecule `Cn1cc(NC(=O)N2CC3(C2)C(=O)N(c2ccc(C#N)c(F)c2)CC(=O)N3Cc2ccc(C(F)(F)F)cc2)cn1` [Compound 200, 8-(4-cyano-3-fluorophenyl)-N-(1-methyl-1H-pyrazol-4-yl)-6,9-dioxo-5-(4-(trifluoromethyl)benzyl)-2,5,8-triazaspiro[3.5]nonane-2-carboxamide], the “CDMF75 IC15” value stood at 0.9 µM. As for `CN(C)C(=O)N1CC2(C1)C(=O)N(c1ccc(C#N)c(F)c1)CC(=O)N2Cc1ccc(C(F)(F)F)cc1` [Compound 201, 8-(4-cyano-3-fluorophenyl)-N,N-dimethyl-6,9-dioxo-5-(4-(trifluoromethyl)benzyl)-2,5,8-triazaspiro[3.5]nonane-2-carboxamide], the “CDMF75 IC15” value was found to be 5.1 µM.

On to `N#Cc1ccc(N2CC(=O)N(Cc3ccc(C(F)(F)F)cc3)C3(CN(C(=O)C4CC4)C3)C2=O)c(F)c1` [Compound 203, 4-(2-(cyclopropanecarbonyl)-6,9-dioxo-5-(4-(trifluoromethyl)benzyl)-2,5,8-triazaspiro[3.5]nonan-8-yl)-3-fluorobenzonitrile], for which the “CDMF75 IC15” value was determined as 0.6 µM. For the molecule `N#Cc1ccc(N2CC(=O)N(Cc3ccc(C(F)(F)F)cc3)C3(CN(C(N)=O)C3)C2=O)c(F)c1` [Compound 204, 8-(4-cyano-2-fluorophenyl)-6,9-dioxo-5-(4-(trifluoromethyl)benzyl)-2,5,8-triazaspiro[3.5]nonane-2-carboxamide], the “CDMF75 IC15” value came to 0.2 µM. Under `CC(=O)N1CCC2(C1)C(=O)N(c1ccc(C#N)cc1F)CC(=O)N2Cc1ccc(Cl)cc1` (stereo not shown) [Compound 205, 4-(2-acetyl-6-(4-chlorobenzyl)-7,10-dioxo-2,6,9-triazaspiro[4.5]decan-9-yl)-3-fluorobenzonitrile] stands 0.7 µM.

Take `CC(=O)N1CC[C@]2(C1)C(=O)N(c1ccc(C#N)cc1F)CC(=O)N2Cc1ccc(C(F)(F)F)cc1` [Compound 209, (S)-4-(2-acetyl-7,10-dioxo-6-(4-(trifluoromethyl)-benzyl)-2,6,9-triazaspiro-[4.5]decan-9-yl)-3-fluorobenzonitrile]: the “CDMF75 IC15” value stood at 0.5 µM.
